Measured values reported in PMC8281026, “Peptide Based Inhibitors of Protein Binding to the Mitogen-Activated Protein Kinase Docking Groove” (Frontiers in Molecular Biosciences, 2021).

Experiments:
[1] = test system: ERK1/2 phosphorylation in HEK-293T cells; assay: ERK phosphorylation level in cells by Western-blot after EGF stimulation; assay type: cell-based; conditions: pre-treated 20 μM, 5 h, EGF 100 ng/ml
Experimental: To study the effect of peptides on the ERK pathway EGF stimulation and Western-blot analysis were used. HEK-293T cells were plated on 48-well plate and were serum-starved for overnight. Then cells were treated with the Cf-peptide at 20µM for 5 h in 100 μL DMEM and then stimulated by addition of EGF (Sigma, E9644) in 100 ng/mL concentration. Stimulation was terminated at different time points by adding 35 μL 4× SDS loading buffer. Cells were lysed and 10 μL of each sample was subjected to SDS-PAGE. […] The intensities of the protein bands were determined by densitometry and monitored after the stimulation in time. […] Activated (i.e., phosphorylated) ERK and p38 were detected by phospho-p44/42 MAPK (ERK1/2) (see above) and phospho-p38 MAPK (Thr180/Tyr182) rabbit primary antibody (Cell Signaling, #9215) in 1:2000 dilution, respectively. The total ERK and p38 content of the samples were determined by anti-p44/42 MAPK (ERK1/2) mouse primary antibody and anti-p38α MAPK mouse mAb (Cell Signaling, #9228), respectively. […] As secondary antibody anti-rabbit antibody (IRDye® 800CW Goat anti-Rabbit IgG, #926-32211) in 1:5,000 and secondary anti-mouse antibody (IRDye® 680CW Goat anti-Mouse IgG, #926-68070 in 1: 10,000 were used. Protein bands were detected and quantified with LI-COR Odyssey® Clx infrared imaging system. Statistical analysis was done using two-sided independent Student’s t-test.

HEK-293T cells [2] = assay: Cellular uptake by fluorescence microscopy; assay type: cell-based; conditions: fluorescence microscopy
Experimental: (§1) The cellular uptake of the fluorescent labeled peptide into HEK-293T cells were analyzed by fluorescence microscopy (Cytation 3, BioTek Instruments) and two peptides were further examined by confocal laser scanning microscopy (Zeiss LSM-710 system). Cells were incubated with peptides in serum-free medium (DMEM) for 3 h at 37 °C and then washed twice with 200 μl of serum-free medium before analyzing.

HEK-293T cells [3] = assay: Intracellular distribution by confocal laser scanning microscopy; assay type: cell-based; conditions: 10 and 20 µM, 3 h
Experimental: as §1

HL-60 cells [4] = assay: Cellular uptake by flow cytometry; assay type: cell-based, human; conditions: for fluorescence intensity relative to peptide 9: 90 min, HL-60, flow cytometry, trypsin treated
Experimental: (§2) To study the cellular uptake of fluorescent labeled peptides and conjugate by flow cytometry, 10^5 HL-60 cells per well were plated on 24-well plates and were incubated for 24 h at 37°C. Then cells were treated with the solution of compounds in serum-free media for 90 min. The cellular uptake was analysed at 1, 5 and 10 µM concentrations. Cells treated with serum-free media were the control. At the end of incubation, treatment solutions were removed, and the cells were treated with 100 μL trypsin for 2 min to remove the membrane proteins in order to eliminate non-specific binding of conjugates. The effect of trypsin was terminated by 900 μL HPMI containing 10% fetal calf serum, and the cell suspensions were transferred into FACS-tubes. After centrifugation at 216g at 4°C for 5 min the supernatant was removed. Then cells were resuspended in 500 µl HPMI, and the intracellular fluorescence intensity of HL-60 cells was monitored (on channel FITC LP505; emission at λ = 505 nm; LP 505, BP 530/30) by flow cytometry (BD LSR II, BD Bioscience, San Jose, CA, equipped with 488 nm; Coherent Sapphire, 22 mW laser.) which is proportional to the cellular uptake. Data were analysed with FACSDiVa 5.0 software. Statistical analysis was done using two-sided independent Student’s t-test.

HL-60 cells [5] = assay: Percent of live cells by flow cytometry; assay type: cell-based, human; conditions: 10 µM, 90 min, serum-free media, HL-60, three independent measurements
Experimental: as §2

Row | number of live cells (HL-60 cells [5]) | Substance | amount of phosphorylated ERK [1] | internalization of the conjugate into HEK-293T cells (HEK-293T cells [2]; after 5 h of treatment at 5 µM (Figure 4 legend: 20 μM, 5 h)) | intracellular distribution (HEK-293T cells [3]) | fluorescence intensity relative to peptide 9 (HL-60 cells [4]; 1 µM) | fluorescence intensity relative to peptide 9 (HL-60 cells [4]; 5 µM) | fluorescence intensity relative to peptide 9 (HL-60 cells [4]; 10 µM) | internalization compared to the peptide without the Dabcyl-group (HL-60 cells [4]; at different concentrations) | internalization into HEK-293T cells (HEK-293T cells [2]; serum-free medium, 37 °C, up to 3 h, Figure 1)
1 |  | Cf-SLQRKKPPWLKLDIPSC(CH2-CO-RRRRRRRR-NH2)-NH2 [compound 3, Cf-labeled octaarginine conjugate] | some reduction | showed internalization |  |  |  |  |  | 
2 | 40% | Dabcyl-RRRPPWLRLDIRRK(Cf)-NH 2 [compound 11] |  |  | more diffuse distribution | 9.2 times | 23.5 times | 16.9 times | 10–24 times | increased the peptide internalization
